Results: patent US11998539B2, “Substituted aminoquinolones as DGKalpha inhibitors for immune activation” (Bayer Aktiengesellschaft, priority 2019, dated 2024)

Target: DGKα (Homo sapiens (Human), UniProt P23743)
Test: Human DGKα kinase activity inhibition assay (ADP-Glo)
Assay type: biochemical
Conditions: recombinant full-length human DGKα, 55 μM ATP, 7 μM 1,2-dioleoyl-sn-glycerol, read-out: IC50 values of examples in in vitro human DGKa kinase activity inhibition assays
Description: Human DGKα Kinase Activity Inhibition Assay
Human DGKα inhibitory activity of compounds of the present invention was quantified employing the human DGKα kinase activity assay as described in the following paragraphs. In essence, the enzyme activity was measured by quantification of the adenosine-di-phosphate (ADP) generated as a co-product of the enzyme reaction via the “ADP-Glo™ Kinase Assay” kit from the company Promega. This detection system works as follows: In a first step the ATP not consumed in the kinase reaction is quantitatively converted to cAMP employing an adenylate cyclase (“ADP-Glo-reagent”), then the adenylate cyclase is stopped and the ADP generated in the kinase reaction converted to ATP, which subsequently generates in a luciferase-based reaction a glow-luminescence signal (“Kinase Detection Reagent”).
C-terminally FLAG-tagged, recombinant full-length human DGKα (expressed in baculovirus infected insect cells, purified using anti-Flag pulldown and size exclusion chromatography as described below, DGKa_hu_1) was used as enzyme. As substrate for the kinase 1,2-dioleoyl-sn-glycerol, reconstituted in octyl-β-D-glucopyranoside micelles, was used. […] Then 35 volumes of 50 mM MOPS buffer (pH 7.4) were added to yield a solution of 0.28 mM 1,2 dioleoyl-sn-glycerol and 200 mM […], which was aliquoted, flash-frozen in liquid nitrogen, and stored at −20° C. until use.
For the assay 50 nl of a 100-fold concentrated solution of the test compound in dimethyl sulfoxide (DMSO, Sigma) was pipetted into either a white 1536-well or a white low-volume 384-well microtiter plate (both Greiner Bio-One, Frickenhausen, Germany).

DGKα, sequence (P23743 other isoform, or with tags, fused parts or gaps): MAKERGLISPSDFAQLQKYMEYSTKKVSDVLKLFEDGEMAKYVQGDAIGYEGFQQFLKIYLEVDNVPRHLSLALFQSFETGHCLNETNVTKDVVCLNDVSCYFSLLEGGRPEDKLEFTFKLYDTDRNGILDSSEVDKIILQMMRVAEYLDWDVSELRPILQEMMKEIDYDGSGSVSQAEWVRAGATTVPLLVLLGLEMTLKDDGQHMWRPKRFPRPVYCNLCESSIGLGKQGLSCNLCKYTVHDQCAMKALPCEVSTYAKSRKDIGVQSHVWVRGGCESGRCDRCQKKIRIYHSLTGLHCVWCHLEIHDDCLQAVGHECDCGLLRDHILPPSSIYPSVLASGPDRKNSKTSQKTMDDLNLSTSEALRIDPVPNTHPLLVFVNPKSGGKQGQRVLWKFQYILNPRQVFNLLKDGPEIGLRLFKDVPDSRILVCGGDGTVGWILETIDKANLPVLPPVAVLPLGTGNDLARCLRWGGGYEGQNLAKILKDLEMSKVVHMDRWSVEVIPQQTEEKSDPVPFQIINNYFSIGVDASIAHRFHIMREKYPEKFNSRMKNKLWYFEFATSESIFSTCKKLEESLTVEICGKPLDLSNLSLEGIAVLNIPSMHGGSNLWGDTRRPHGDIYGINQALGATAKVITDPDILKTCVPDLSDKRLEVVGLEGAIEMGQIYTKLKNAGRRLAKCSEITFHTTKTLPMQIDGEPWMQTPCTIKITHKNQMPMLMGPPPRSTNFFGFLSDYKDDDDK

Row | SMILES | IC50
1 | Cn1c(=O)c(C(N)=O)c(N2CCC(F)(c3nc4ccccc4o3)CC2)c2ccccc21 [Example 488, 4-[4-(1,3-benzoxazol-2-yl)-4-fluoropiperidin-1-yl]-1-methyl-2-oxo-1,2-dihydroquinoline-3-carboxamide] | 1.6 nM
2 | Cn1c(=O)c(C(N)=O)c(N2CCC(C)(c3nnc(-c4cccc(Cl)c4)o3)CC2)c2ccccc21 [Example 465, 4-{4-[5-(3-chlorophenyl)-1,3,4-oxadiazol-2-yl]-4-methylpiperidin-1-yl}-1-methyl-2-oxo-1,2-dihydroquinoline-3-carboxamide] | 175 nM
3 | COCCc1ccc2oc(C3CCN(c4c(C(N)=O)c(=O)n(C)c5ccccc45)CC3)nc2c1 [Example 295, 4-{4-[5-(2-methoxyethyl)-1,3-benzoxazol-2-yl]piperidin-1-yl}-1-methyl-2-oxo-1,2-dihydroquinoline-3-carboxamide] | 9.5 nM
4 | Cn1c(=O)c(C#N)c(N2CCC(c3nc4cc(Cl)ccc4o3)CC2)c2cccc(Br)c21 [Example 159, 8-bromo-4-[4-(5-chloro-1,3-benzoxazol-2-yl)piperidin-1-yl]-1-methyl-2-oxo-1,2-dihydroquinoline-3-carbonitrile] | 383 nM
5 | Cn1c(=O)c(C#N)c(N2CCC(c3nnc(-c4ccccc4)o3)CC2)c2cc(Br)ccc21 [Example 441, 6-bromo-1-methyl-2-oxo-4-[4-(5-phenyl-1,3,4-oxadiazol-2-yl)piperidin-1-yl]-1,2-dihydroquinoline-3-carbonitrile] | 11 nM
6 | Cn1c(=O)c(C#N)c(N2CCC(c3nc4ccccc4o3)CC2)c2cc(C#N)ccc21 [Example 175, 4-[4-(1,3-benzoxazol-2-yl)piperidin-1-yl]-1-methyl-2-oxo-1,2-dihydroquinoline-3,6-dicarbonitrile] | 4.2 nM
7 | Cc1ccc2c(N3CCC(c4nc5ccccc5s4)CC3)c(C#N)c(=O)n(C)c2c1 [Example 222, 4-[4-(1,3-benzothiazol-2-yl)piperidin-1-yl]-1,7-dimethyl-2-oxo-1,2-dihydroquinoline-3-carbonitrile] | 5.2 nM
8 | Cc1ccc2oc(C3CCN(c4c(C#N)c(=O)n(C)c5cc(NC6COC6)c(C)cc45)CC3)nc2c1 [Example 549, 1,6-dimethyl-4-[4-(5-methyl-1,3-benzoxazol-2-yl)piperidin-1-yl]-7-[(oxetan-3-yl)amino]-2-oxo-1,2-dihydroquinoline-3-carbonitrile] | 0.6 nM
9 | Cn1c(=O)c(C#N)c(N2CCC(c3nc4ccccc4o3)CC2)c2ccccc21 [Example 2, 4-[4-(1,3-benzoxazol-2-yl)piperidin-1-yl]-1-methyl-2-oxo-1,2-dihydroquinoline-3-carbonitrile] | 6.4 nM
10 | Cc1ccc2oc(C3(C)CCN(c4c(C#N)c(=O)n(C)c5cc(OC6CCC6)ccc45)CC3)nc2c1 [Example 247, 7-(cyclobutyloxy)-1-methyl-4-[4-methyl-4-(5-methyl-1,3-benzoxazol-2-yl)piperidin-1-yl]-2-oxo-1,2-dihydroquinoline-3-carbonitrile] | 6.9 nM
11 | Cn1c(=O)c(C#N)c(N2CCC(c3nc4ccc(Br)cc4o3)CC2)c2ccccc21 [Example 294, 4-[4-(6-bromo-1,3-benzoxazol-2-yl)piperidin-1-yl]-1-methyl-2-oxo-1,2-dihydroquinoline-3-carbonitrile] | 12 nM
12 | Cc1cccc2oc(C3CCN(c4c(C#N)c(=O)n(C)c5ccccc45)CC3)nc12 [Example 17, 1-methyl-4-[4-(4-methyl-1,3-benzoxazol-2-yl)piperidin-1-yl]-2-oxo-1,2-dihydroquinoline-3-carbonitrile] | 12 nM
13 | COc1ccc(C2CCN(c3c(C#N)c(=O)n(C)c4ccc(C#N)cc34)CC2)cc1 [Example 173, 4-[4-(4-methoxyphenyl)piperidin-1-yl]-1-methyl-2-oxo-1,2-dihydroquinoline-3,6-dicarbonitrile] | 12 nM
14 | Cn1c(=O)c(C#N)c(N2CCC(c3ccc(N4CCCC4=O)cc3)CC2)c2ccccc21 [Example 59] | 23 nM
15 | Cc1ccc2oc(C3(C)CCN(c4c(C#N)c(=O)n(C)c5cc(OCC6(O)CC6)ccc45)CC3)nc2c1 [Example 239, 7-[(1-hydroxycyclopropyl)methoxy]-1-methyl-4-[4-methyl-4-(5-methyl-1,3-benzoxazol-2-yl)piperidin-1-yl]-2-oxo-1,2-dihydroquinoline-3-carbonitrile] | 0.6 nM
16 | Cc1ccc2oc(C3(C)CCN(c4c(C#N)c(=O)n(C)c5c(S(C)(=O)=O)cccc45)CC3)nc2c1 [Example 164, 8-(methanesulfonyl)-1-methyl-4-[4-methyl-4-(5-methyl-1,3-benzoxazol-2-yl)piperidin-1-yl]-2-oxo-1,2-dihydroquinoline-3-carbonitrile] | 1.1 nM
17 | COCc1ccc2c(c1)c(N1CCC(C)(c3nc4cc(C)ccc4o3)CC1)c(C#N)c(=O)n2C [Example 213, 6-(methoxymethyl)-1-methyl-4-[4-methyl-4-(5-methyl-1,3-benzoxazol-2-yl)piperidin-1-yl]-2-oxo-1,2-dihydroquinoline-3-carbonitrile] | 39 nM
18 | COc1cc2c(cc1Br)c(N1CCC(c3nc(-c4ccccc4C)no3)CC1)c(C#N)c(=O)n2C [Example 530, 6-bromo-7-methoxy-1-methyl-4-{4-[3-(2-methylphenyl)-1,2,4-oxadiazol-5-yl]piperidin-1-yl}-2-oxo-1,2-dihydroquinoline-3-carbonitrile] | 1.8 nM
19 | Cn1c(=O)c(C#N)c(N2CCC(c3nc4c(F)cccc4o3)CC2)c2ccccc21 [Example 26, 4-[4-(4-fluoro-1,3-benzoxazol-2-yl)piperidin-1-yl]-1-methyl-2-oxo-1,2-dihydroquinoline-3-carbonitrile] | 10 nM
20 | Cn1cc(C(=O)C(F)(F)F)c2cc(C3CCN(c4c(C#N)c(=O)n(C)c5ccccc45)CC3)ccc21 [Example 72, 1-methyl-4-{4-[1-methyl-3-(trifluoroacetyl)-1H-indol-5-yl]piperidin-1-yl}-2-oxo-1,2-dihydroquinoline-3-carbonitrile] | 30 nM
21 | Cc1ccc2oc(C3(C)CCN(c4c(C#N)c(=O)n(C)c5cc(OC6COC6)ccc45)CC3)nc2c1 [Example 241, 1-methyl-4-[4-methyl-4-(5-methyl-1,3-benzoxazol-2-yl)piperidin-1-yl]-7-[(oxetan-3-yl)oxy]-2-oxo-1,2-dihydroquinoline-3-carbonitrile] | 2.5 nM
22 | Cc1cc2c(N3CCC(c4nc(-c5ccccc5C)no4)CC3)c(C#N)c(=O)n(C)c2cc1NCCO [Example 559, 7-[(2-hydroxyethyl)amino]-1,6-dimethyl-4-{4-[3-(2-methylphenyl)-1,2,4-oxadiazol-5-yl]piperidin-1-yl}-2-oxo-1,2-dihydroquinoline-3-carbonitrile] | 1.7 nM
23 | CC(C)c1ccc2oc(C3CCN(c4c(C#N)c(=O)n(C)c5ccc(Br)cc45)CC3)nc2c1 [Example 170, 6-bromo-1-methyl-2-oxo-4-{4-[5-(propan-2-yl)-1,3-benzoxazol-2-yl]piperidin-1-yl}-1,2-dihydroquinoline-3-carbonitrile] | 7.2 nM
24 | COCCc1ccc2oc(C3CCN(c4c(C#N)c(=O)n(C)c5ccccc45)CC3)nc2c1 [Example 283, 4-{4-[5-(2-methoxyethyl)-1,3-benzoxazol-2-yl]piperidin-1-yl}-1-methyl-2-oxo-1,2-dihydroquinoline-3-carbonitrile] | 6.8 nM
